This is an account of results in US11168079B2, “Alkene compounds as farnesoid x receptor modulators” (BRISTOL-MYERS SQUIBB COMPANY, priority 2017, dated 2021).

The structures appear in SMILES notation.

The subject of one assay is Fgf15. In words: Acute mouse in vivo assay (PK/PD): Fgf15 gene expression in ileum. Particulars: for Fgf15 (fold change@ 6 h relative to Vehicle): Mouse PD. As to the method:
(§1) Acute Mouse In Vivo Assay:
(§2) Male, C57BL6/NTac mice, weighing 25-28 g, are purchased from Taconic Labs (Hudson, N.Y.) and maintained on Teklad Global 18% Protein Rodent Diet (Harlan Laboratories). After 1 week acclimation, mice are sorted into groups based upon body weight. Mice are administered a single oral dose of vehicle or experimental compound. Systemic compound exposure is evaluated in plasma derived from blood collected via the submandibular vein at 1 hour post-dose, and at study termination (6 h). At study termination, the animals are euthanized and rapidly dissected. The medial lobe of the liver is divided, with one half being homogenized and analyzed for compound exposure, and the other half saved in RNAlater (Thermo-Fisher Scientific). The ileum is also dissected and preserved in RNAlater. Tissue samples in RNAlater are homogenized with MP Biomedicals' beads. RNA is extracted using the MagMax-96 Total RNA Isolation kit (Thermo-Fisher Scientific) according to the manufacturer's protocol. RNA Concentration is determined with the Nano-Drop 8000 Spectrophotometer (Thermo Fisher). […] Mouse genes analyzed include Nr0b2 (which encodes the small heterodimer partner, SHP), Abcb11 (which encodes the bile salt excretion pump, BSEP), Cyp7a1, & Cyp8b1 in liver, and Fgf15, Fabp6 (which encodes ileal bile acid binding protein, I-BABP), Slc51a (which encodes organic solute transporter alpha subunit, OSTA), and Slc51 b (which encodes organic solute transporter beta subunit, OSTB) in the ileum. The statistical significant changes in FGF15 gene expression are expressed as fold increase and CYP7A1 expression as a percent reduction relative to vehicle control. […]
(§3) Male, C57BL6/NTac mice, weighing 25-28 g, are purchased from Taconic Labs (Hudson, N.Y.) and maintained on Teklad Global 18% Protein Rodent Diet (Harlan Laboratories). […] Systemic compound exposure is evaluated in plasma derived from blood collected via the submandibular vein at 1 hour post-dose, and at study termination (6 h). […] RNA Concentration is determined with the Nano-Drop 8000 Spectrophotometer (Thermo Fisher). […]

The subject of the next assay is Cyp7a1. In words: Acute mouse in vivo assay (PK/PD): Cyp7a1 gene expression in liver. As to conditions: for Cyp7a1 (fold change@ 6 h relative to Vehicle): Mouse PD. As to the method:
as §1, §2, §3

A further assay deals with T1, human FXR (Homo sapiens, UniProt Q96RI1).
T1 sequence (Q96RI1 262-486 limits assumed): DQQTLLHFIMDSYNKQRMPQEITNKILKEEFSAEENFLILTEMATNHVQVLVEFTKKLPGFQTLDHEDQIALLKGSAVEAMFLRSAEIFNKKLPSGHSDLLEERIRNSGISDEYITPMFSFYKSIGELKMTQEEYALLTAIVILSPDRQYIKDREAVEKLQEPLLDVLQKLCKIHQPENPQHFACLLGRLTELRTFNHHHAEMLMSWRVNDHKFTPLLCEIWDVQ
In words: transient human FXR/Gal4-luciferase reporter assay (HLE GAL-FXR). As to conditions: FXR EC50 (nM), Gal4-hFXR fusion reporter, HEK293 cells; Table 1.

Protocol for human FXR: A Gal4-hFXR fusion construct reporter system was used as the primary assay to characterize compound activity. A construct including 5 copies of the Gal4 promoter response element upstream of a firefly luciferase reporter cDNA was stably expressed in HEK293 cells. This reporter cell line was maintained in Dulbecco's Modified Eagle's medium (DMEM; Gibco) supplemented with 1% penicillin-streptomycin (P/S) solution, 500 μg/mL Zeocin and 10% charcoal/dextran-treated fetal bovine serum (cs-FBS) at 37° C. in a humidified 5% CO2 atmosphere. Another plasmid was constructed in which the human cytomegalovirus promoter in the pcDNA3.1 vector directs the expression of the cDNA encoding a fusion protein comprised of the DNA binding domain from the Gal4 transcription factor fused to the ligand binding domain from human FXR.
For compound testing, 100 nL of the compounds (serial dilutions in DMSO) are dispensed with an Echo acoustic dispenser (Labcyte) into the wells of a Corning/Costar clear bottom 384-well white plate. The transfected cells are harvested, counted, and diluted such that 10-25,000 cells in 25 μL are plated into each well of the 384-well compound assay plate. The compound-treated cells are incubated overnight at 37° C. in a humidified 5% CO2 atmosphere. The next morning 25 μL of Steady-Glo (Promega) are added to each well of the plate, the mixture is incubated for 15 min. with shaking, and luminescence is measured on an Envision (Perkin Elmer) plate reader.

In the case of `O=C(O)c1cc(F)c2nc(N3CCC(/C=C/c4c(-c5c(Cl)cccc5Cl)noc4C4CC4)CC3)sc2c1` [Example 14], the “Mouse in vivo FgF15” value in the assay on Fgf15 (30 mg/kg, @ 6 h, single oral dose, fold increase relative to vehicle control) stood at 10 x. Moreover, the “Mouse in vivo Cyp7a1” value in the assay on Cyp7a1 (30 mg/kg, @ 6 h, single oral dose, percent reduction relative to vehicle control) is listed as −96%.

`O=C(O)c1ncc(N2CCC(/C=C/c3c(-c4c(Cl)cccc4Cl)noc3C3CC3)CC2)cn1` [Example 27]: the EC50 at human FXR was determined as 2330 nM. In the assay with Fgf15 (dose 30 mg/kg), the “Fgf15 (fold change@ 6 h relative to Vehicle)” value worked out at 2.8. Moreover, the “Cyp7a1 (fold change@ 6 h relative to Vehicle)” value with Cyp7a1 (dose 30 mg/kg) was found to be 0.10.

`O=C(O)c1cc2ccc(N3CCC(/C=C/c4c(-c5c(Cl)cncc5Cl)noc4C4CC4)CC3)cc2cn1` [Example 101] registered an EC50 at human FXR of 47 nM. Moreover, in the assay with Fgf15 (dose 3 mg/kg), the “Fgf15 (fold change@ 6 h relative to Vehicle)” value stood at 21. For the same compound, the “Cyp7a1 (fold change@ 6 h relative to Vehicle)” value with Cyp7a1 (dose 3 mg/kg) was 0.06.

The compound `COc1cc(C(=O)O)cc(-c2ccc(N3CC(/C=C/c4c(-c5c(Cl)cncc5Cl)noc4C4CC4)C3)cc2)c1` [Example 219] came in with an EC50 on human FXR of 117 nM. This lies in the sub-micromolar range.

`O=C(O)c1cnn(-c2ccc(N3CC(/C=C/c4c(-c5c(Cl)cncc5Cl)noc4C4CC4)C3)cc2)c1` [Example 220] yielded an EC50 on human FXR of 107 nM.

On human FXR, `COc1cc(C(=O)O)cc(-c2ccc(N3CC(/C=C/c4c(-c5ccccc5C(F)(F)F)noc4C4CC4)C3)cn2)c1` [Example 221] returned an EC50 of 56 nM.

Compound `COc1cc(C(=O)O)cc(-c2ccc(N3CC(/C=C/c4c(-c5ccccc5C(F)(F)F)noc4C4CC4)C3)nc2)c1` [Example 222] had an EC50 on human FXR of 34 nM.

For the compound `COc1cc(C(=O)O)cc(-c2nnc(N3CC4C(/C=C/c5c(-c6c(Cl)cncc6Cl)noc5C5CC5)C4C3)s2)c1` (stereo not shown) [Example 223], on human FXR, a half-maximal response (EC50) required 1400 nM.

In the case of `O=C(O)c1cc(-c2ccc(N3CC(/C=C/c4c(-c5c(Cl)cncc5Cl)noc4C4CC4)C3)nc2)cc(C(F)(F)F)c1` [Example 224], the EC50 on human FXR was determined as 166 nM.

As to `O=C(O)c1cc(-c2ccc(N3CC(/C=C/c4c(-c5ccccc5C(F)(F)F)noc4C4CC4)C3)nc2)cc(C(F)(F)F)c1` [Example 225], the EC50 at human FXR amounted to 6 nM.

On human FXR, `O=C(O)c1cc(F)cc(-c2ccc(N3CC(/C=C/c4c(-c5ccccc5C(F)(F)F)noc4C4CC4)C3)nc2)c1` [Example 226] had an EC50 of 14 nM.
